{"source": "patent US20260265694A1", "about": "“USE OF A VITISIN COMPOUND FOR THE PRODUCTION OF HEMATOPOIETIC CELLS” (ETABLISSEMENT FRANCAIS DU SANG, priority 2022, published 2026)", "system": "SP cells (CD34+DCVlow) isolated from peripheral blood CD34+ cells", "assay": "ERYTHRO 1 PROTOCOL on sorted SP cells", "format": "cell-based, human", "conditions": "SPs, 10 μM, as early as D7, FIG. 4B", "procedure": "SP cells are identifiable by virtue of their property of expelling certain dyes such as Hoescht or Dye Cycle Violet (DCV)). This expulsion takes place by means of […] ATP Binding Cassette (ABCG2) pumps (Brunet de la Grange et al., 2013). To identify SP cells within previously isolated CD34^+ cells, they are incubated with a DCV dye (5 μM) in DMEM^+ medium (Dulbecco's Modified Eagle's Medium (DMEM), 2% FCS, 1% HEPES) for 2 h at 37° C. and in the dark. After incubation, all manipulations up to final cell sorting are performed on ice and in PBS^+ medium (PBS, 2% FCS), a glucose- and calcium-depleted medium which stops the expulsion pumps. […] CD34^+ cells having a low fluorescence intensity for the DCV marker (CD34^+ SP cells) are analyzed (UV 350 nm or violet 405 nm), sorted and recovered using an ARIA cell sorter (Becton Dickinson). […]\nIn order to test the effect of vitisin B in this context, the culturing is performed in the absence and presence of vitisin B: • CTRL condition: Absence of vitisin B throughout the entire protocol. • Test condition: Presence of vitisin B at 5, 10, 15, 20 or 30 μM for the entire duration of the protocol (phase 1+phase 2). During the culture protocol, the differentiation product is analyzed by quantifying proliferation (counting) and analyzing erythrocyte differentiation markers by means of flow cytometry, using the markers CD71 and CD235a. c. […]", "data": [{"smiles": "Oc1ccc(C2Oc3ccc(/C=C/c4cc(O)cc5c4[C@H](c4cc(O)cc(O)c4)[C@@H](c4ccc(O)cc4)O5)cc3C2c2cc(O)cc3c2C(c2cc(O)cc(O)c2)C(c2ccc(O)cc2)O3)cc1", "note": "(stereo in doubt) [vitisin B, 5-[(2R,2'S,3R,3'S)-5-[(1E)-2-[(2S,3S)-3-(3,5-Dihydroxyphenyl)-2,3-dihydro-6-hydroxy-2-(4-hydroxyphenyl)-4-benzofuranyl]ethenyl]-2,2′,3,3′-tetrahydro-6′-hydroxy-2,2′-bis(4-hydroxyphenyl)[3,4′-bibenzofuran]-3′-yl]-1,3-benzenediol]", "values": [{"measurement": "reduction relative to the control in CD71 membrane expression", "value": "up to 40%"}]}]}
